Measured values: PubChem BioAssay (NCI)
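At the GI50, growth is halved. The concentration for full growth arrest is given as TGI.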

Columns and labels:
Experiment in all cases: NCI-60 cell line screen, 384-well format
NCI-H322M lung = system: NCI-H322M lung
NCI-H460 NSCLC = system: NCI-H460 NSCLC
NCI-H522 lung = system: NCI-H522 lung
NCI/ADR-RES ovarian = system: NCI/ADR-RES ovarian
OVCAR-3 ovarian = system: OVCAR-3 ovarian
OVCAR-4 ovarian = system: OVCAR-4 ovarian
OVCAR-5 ovarian = system: OVCAR-5 ovarian
OVCAR-8 ovarian = system: OVCAR-8 ovarian
PC-3 prostate = system: PC-3 prostate
RPMI-8226 leukemia = system: RPMI-8226 leukemia
RXF 393 renal = system: RXF 393 renal
SF-268 CNS = system: SF-268 CNS
SF-295 CNS = system: SF-295 CNS
SF-539 CNS = system: SF-539 CNS
SK-MEL-2 melanoma = system: SK-MEL-2 melanoma
SK-MEL-28 melanoma = system: SK-MEL-28 melanoma
SK-MEL-5 melanoma = system: SK-MEL-5 melanoma
SK-OV-3 ovarian = system: SK-OV-3 ovarian
SN12C renal = system: SN12C renal
SNB-19 CNS = system: SNB-19 CNS
SNB-75 CNS = system: SNB-75 CNS
SR leukemia = system: SR leukemia
SW-620 colon = system: SW-620 colon
T-47D breast = system: T-47D breast
TK-10 renal = system: TK-10 renal
U251 glioblastoma = system: U251 glioblastoma
UACC-257 melanoma = system: UACC-257 melanoma
UACC-62 melanoma = system: UACC-62 melanoma
UO-31 renal = system: UO-31 renal

Compound: Cc1cnc(-c2ccc(-c3ccc(NC(=O)Nc4cccc(C(F)(F)F)c4)cc3F)c3c2C(=O)NC3)[nH]1
- GI50 (NCI-H322M lung): 7120 nM
- TGI (NCI-H322M lung): 26500 nM
- GI50 (NCI-H460 NSCLC): 38.1 nM
- TGI (NCI-H460 NSCLC): 1360 nM
- GI50 (NCI-H522 lung): 34.5 nM
- TGI (NCI-H522 lung): 1600 nM
- GI50 (NCI/ADR-RES ovarian): 24000 nM
- TGI (NCI/ADR-RES ovarian): > 100000 nM
- GI50 (OVCAR-3 ovarian): 75.5 nM
- TGI (OVCAR-3 ovarian): 2110 nM
- GI50 (OVCAR-4 ovarian): 96.5 nM
- TGI (OVCAR-4 ovarian): 2660 nM
- GI50 (OVCAR-5 ovarian): 5690 nM
- TGI (OVCAR-5 ovarian): 22700 nM
- GI50 (OVCAR-8 ovarian): 1210 nM
- TGI (OVCAR-8 ovarian): 10500 nM
- GI50 (PC-3 prostate): 1960 nM
- TGI (PC-3 prostate): 5350 nM
- GI50 (RPMI-8226 leukemia): 31 nM
- TGI (RPMI-8226 leukemia): 1490 nM
- GI50 (RXF 393 renal): 923 nM
- TGI (RXF 393 renal): 3400 nM
- GI50 (SF-268 CNS): 261 nM
- TGI (SF-268 CNS): 3000 nM
- GI50 (SF-295 CNS): 93.3 nM
- TGI (SF-295 CNS): 4690 nM
- GI50 (SF-539 CNS): 60.9 nM
- TGI (SF-539 CNS): 1740 nM
- GI50 (SK-MEL-2 melanoma): 751 nM
- TGI (SK-MEL-2 melanoma): 3240 nM
- GI50 (SK-MEL-28 melanoma): 1300 nM
- TGI (SK-MEL-28 melanoma): 12200 nM
- GI50 (SK-MEL-5 melanoma): 1010 nM
- TGI (SK-MEL-5 melanoma): 4350 nM
- GI50 (SK-OV-3 ovarian): 926 nM
- TGI (SK-OV-3 ovarian): 4140 nM
- GI50 (SN12C renal): 75.5 nM
- TGI (SN12C renal): 2270 nM
- GI50 (SNB-19 CNS): 1700 nM
- TGI (SNB-19 CNS): 4540 nM
- GI50 (SNB-75 CNS): 1130 nM
- TGI (SNB-75 CNS): 2660 nM
- GI50 (SR leukemia): < 10 nM
- TGI (SR leukemia): 14.4 nM
- GI50 (SW-620 colon): 83.5 nM
- TGI (SW-620 colon): 3640 nM
- GI50 (T-47D breast): 2060 nM
- TGI (T-47D breast): 6710 nM
- GI50 (TK-10 renal): 1050 nM
- TGI (TK-10 renal): 4470 nM
- GI50 (U251 glioblastoma): 1340 nM
- TGI (U251 glioblastoma): 3170 nM
- GI50 (UACC-257 melanoma): 1730 nM
- TGI (UACC-257 melanoma): 9250 nM
- GI50 (UACC-62 melanoma): 276 nM
- TGI (UACC-62 melanoma): 4730 nM
- GI50 (UO-31 renal): 81.7 nM
- TGI (UO-31 renal): 1460 nM
